Assay results as given in US11129820B2, “Ferroportin-inhibitor salts” (Vifor (International) AG, priority 2017, dated 2021).
Marks after values point to notes of the source that are not given here.

Columns and labels:
[1] = tested on: beta2-microglobulin deficient (b2m−/−) mice; assay: Prevention of iron overload in beta2-microglobulin deficient mice; format: in vivo, mouse; conditions: 14 days
Experimental: In addition, feeding 3 week old b2m−/− mice a diet with low iron content (LID) immediately after weaning prevents liver iron loading by age of 6-7 weeks. The efficacy of the Fpn inhibitors to prevent liver iron accumulation in b2m−/− mice is investigated. Three weeks old b2−/− mice fed LID are dosed with either Fpn inhibitor or vehicle (methylcellulose; 10 ml/kg). Mice have access to drinking water supplemented with 1 mM ^58Fe(II)-sulfate and 10 mM ascorbic acid. Dosing of Fpn inhibitor or vehicle followed by exposure to iron-containing water is repeated for 14 days. Mice are euthanized and the liver and spleen iron contents are analyzed by ICP-OES (all iron isotopes) and liver tissue is also analyzed for ^58Fe concentration (ICP-MS).
Livers and spleens are collected after 14 day treatment (p.o.; b.i.d) of beta2-microglobulin deficient mice with the indicated doses of Fpn inhibitors. Total liver and spleen tissue iron concentrations are measured using ICP-OES and ^58Fe liver concentrations are determined with ICP-MS. Relative changes (%) of tissue iron levels are calculated by normalizing the difference between the averages of tissue iron values of animals dosed with the Fpn inhibitors and those of vehicle-treated animals with the average of vehicle controls.

[2] = tested on: anemic Wistar rats; assay: Prevention of iron absorption in anemic rats; format: in vivo, rat; conditions: n=5
Experimental: To assess the in vivo efficacy of ferroportin (Fpn) inhibitors to block iron absorption, a series of Fpn inhibitors is tested in an anemic rat model for iron absorption. Wistar rats (3-4 weeks old, n=5, Janvier Labs) are fed a low iron diet (Provimi-Kliba, Cat. 2039) until their hemoglobin (Hb) values reach 7-8 g/dl one day before dosing of the Fpn inhibitor compounds. One hour before oral application of 0.5 mg/kg of ferrous sulfate, test compounds formulated in methyl cellulose or Cremophor are dosed orally. Blood samples are taken by tail vein puncture one hour before administration of iron (−1 h), immediately after dosing of the Fpn inhibitors (0 h) and one hour (1 h), three hours (3 h) and occasionally up to 6 hours (6 h) after dosing of the test compounds. Serum iron levels are measured (Abbott Diagnostics, Cat. 6K95) and inhibition of the rise of serum iron three hours after dosing of the test compound is calculated as a measure for efficacy of the Fpn inhibitors in blocking iron absorption (Table 7).

[3] = tested on: Hbb th3/+ mice; assay: Mouse model of β-thalassemia intermedia (Hbb th3/+ mice); format: in vivo; conditions: for Decrease in RDW by 20/60 mg/kg compound / Decrease in ^58Fe spleen iron content by 20/60 mg/kg compound / Decrease in blood reticulocyte counts by 20/60 mg/kg compound / Decrease in leukocyte counts by 20/60 mg/kg compound / Decrease in relative spleen weight by 20/60 mg/kg / Decrease in serum erythropoietin by 20/60 mg/kg compound / Increase in blood erythrocyte counts by 20/60 mg/kg compound / Increase in hematocrit by 20/60 mg/kg compound / Prevention of liver ^58Fe loading by 20/60 mg/kg / Decrease in serum iron by 20/60 mg/kg compound / Decreased in ROS in bone marrow erythrocytes: % change to vehicle; for Correction of anemia at day 20-48 by 20/60 mg/kg: hemoglobin difference to vehicle; for Decrease in serum iron by 20/60 mg/kg compound: dosed for 3 h
Experimental: The efficacy of Fpn inhibitors is investigated using a mouse model of transfusion-independent β-thalassemia. Mice with heterozygous deletion of β 1 and β 2 globin genes (called Hbb th3/+ mice) develop transfusion-independent anemia, ineffective erythropoiesis, splenomegaly and secondary iron overload in spleen, liver and kidneys. […] Hbb th3/+ mice are dosed twice daily with either compound at 20 or 60 mg/kg or with methylcellulose (10 ml/kg, Sigma, Cat. 274429) as a vehicle. Between both doses mice have access to drinking water supplemented with 1 mM ^58Fe(II)-sulfate (Vifor Pharma, Batch No. ROR 3096) and 10 mM ascorbic acid (Sigma, Cat. 795437) for 6 h. The concentration of ^58Fe(II)-Sulfate supplied in the drinking water is adjusted to substitute for intake of standard rodent diet with iron content of 250 ppm. Water without ^58Fe(II)-Sulfate and ascorbic acid is provided during the remaining 18 h. Dosing of Fpn inhibitors or vehicle followed by exposure to iron-containing water is repeated for 20 to 46 days in individual experiments.
Additional hematologic parameters are measured in terminal blood using automated blood cell analyzer.
The inefficient erythropoiesis of Hbb th3/+ mice causes excessive proliferation of erythroid precursors in spleen, leading to splenomegaly.
Elevated erythropoietin levels in Hbb th3/+ mice induce overexpression of erythroferrone, an erythroid regulator hormone known to suppress hepcidin (Kautz L. et al, Nat. Genet., 2014). […] Erythroferrone is produced by erythrocyte precursors proliferating massively in spleens of Hbb th3/+ mice as a consequence of extramedullar erythropoiesis.
Increased iron demand due to inefficient erythropoiesis and chronically low hepcidin levels in patients with thalassemia causes organ iron loading and associated morbidities, such as hepatocellular carcinoma and heart failure (Rivella S. Haematologica, 2015). Hbb th3/+ mice absorb excessive amounts of iron as a consequence of inadequately low hepcidin levels relative to the high iron content in liver, spleen and kidney and increased ferroportin expression in duodenum (Gardenghi S., Blood, 2007).
Additionally, reactive oxygen species (ROS) are detected in bone marrow cells using a fluorescent indicator, CM-H2DCFDA (Thermo Fisher Scientific, Cat. C6827).
Data are expressed as difference to the vehicle control group for hemoglobin and as % change to the vehicle control group for all other parameter shown

[4] = 20 mg/kg twice daily for 20-46 days
[5] = 60 mg/kg twice daily for 20-46 days
[6] = first value of the pair (20 mg/kg; dose not printed in this line)
[7] = second value of the pair (60 mg/kg; dose not printed in this line)

SMILES | Total Liver Iron Reduction (%) ([1]; female ♀, 20 mg/kg p.o. b.i.d.) | Total Spleen Iron Increase (%) ([1]; female ♀, 20 mg/kg p.o. b.i.d.) | ^58Fe Liver Iron Reduction (%) ([1]; female ♀, 20 mg/kg p.o. b.i.d.) | Total Liver Iron Reduction (%) ([1]; female ♀, 60 mg/kg p.o. b.i.d.) | Total Spleen Iron Increase (%) ([1]; female ♀, 60 mg/kg p.o. b.i.d.) | ^58Fe Liver Iron Reduction (%) ([1]; female ♀, 60 mg/kg p.o. b.i.d.) | Total Liver Iron Reduction (%) ([1]; male ♂, 20 mg/kg p.o. b.i.d.) | Total Spleen Iron Increase (%) ([1]; male ♂, 20 mg/kg p.o. b.i.d.) | ^58Fe Liver Iron Reduction (%) ([1]; male ♂, 20 mg/kg p.o. b.i.d.) | Total Liver Iron Reduction (%) ([1]; male ♂, 60 mg/kg p.o. b.i.d.) | Total Spleen Iron Increase (%) ([1]; male ♂, 60 mg/kg p.o. b.i.d.) | ^58Fe Liver Iron Reduction (%) ([1]; male ♂, 60 mg/kg p.o. b.i.d.) | Serum Iron Inhibition (%) at 3 h ([2]; Dose 3 mg/kg oral) | Serum Iron Inhibition (%) at 3 h ([2]; Dose 10 mg/kg oral) | Serum Iron Inhibition (%) at 3 h ([2]; Dose 30 mg/kg oral) | Decrease in RDW by 20/60 mg/kg compound [3, 4] | Decrease in ^58Fe spleen iron content by 20/60 mg/kg compound [3, 4] | Decrease in blood reticulocyte counts by 20/60 mg/kg compound [3, 4] | Decrease in leukocyte counts by 20/60 mg/kg compound [3, 4] | Decrease in serum erythropoietin by 20/60 mg/kg compound [3, 4] | also measured
O=C(NCc1ncccc1F)c1cnc(C2CN(CCc3nc4ccccc4[nH]3)C2)o1 [Example Compound No. 2] | 26% | 13% | 60** % | 45% | 1% | 77*** % | 10% | 18% | 24% | 28% | −20% | 70% | −3% | 29** % | 57*** % | 0% | 13% | 0% | 29% | 4% | Decrease in relative spleen weight by 20/60 mg/kg [3, 4]: 16%; Increase in blood erythrocyte counts by 20/60 mg/kg compound [3, 4]: 0%; Increase in hematocrit by 20/60 mg/kg compound [3, 4]: 0%; Prevention of liver ^58Fe loading by 20/60 mg/kg [3, 4]: 14%; Correction of anemia at day 20-48 by 20/60 mg/kg ([3]; 20 mg/kg twice daily): 3 g/L; Decrease in serum iron by 20/60 mg/kg compound ([3]; 20 mg/kg): 50%; Decrease in RDW by 20/60 mg/kg compound [3, 5]: 15%; Decrease in ^58Fe spleen iron content by 20/60 mg/kg compound [3, 5]: 40%; Decrease in blood reticulocyte counts by 20/60 mg/kg compound [3, 5]: 11%; Decrease in leukocyte counts by 20/60 mg/kg compound [3, 5]: 55%; Decrease in relative spleen weight by 20/60 mg/kg [3, 5]: 47%; Decrease in serum erythropoietin by 20/60 mg/kg compound [3, 5]: 27%; Increase in blood erythrocyte counts by 20/60 mg/kg compound [3, 5]: 33%; Increase in hematocrit by 20/60 mg/kg compound [3, 5]: 15%; Prevention of liver ^58Fe loading by 20/60 mg/kg [3, 5]: 47%; Correction of anemia at day 20-48 by 20/60 mg/kg ([3]; 60 mg/kg twice daily): 11 g/L; Decrease in serum iron by 20/60 mg/kg compound ([3]; 60 mg/kg): 69%; Decreased in ROS in bone marrow erythrocytes [3, 6]: 13%; Decreased in ROS in bone marrow erythrocytes [3, 7]: 65%
O=C(NCc1ncccc1F)c1cnc(CCNCCc2nc3ccccc3[nH]2)o1 [Example Compound No. 1] | −1% | 21% | 4% | 15% | 65% | 59% | 16% | 28% | −8% | 25% | 49% | 22% | 2.1% | 42.6** % | 64.9*** % | 3% | 14% | 8% | 32% | 64% | Increase in blood erythrocyte counts by 20/60 mg/kg compound [3, 4]: 4%; Increase in hematocrit by 20/60 mg/kg compound [3, 4]: 0%; Prevention of liver ^58Fe loading by 20/60 mg/kg [3, 4]: 12%; Correction of anemia at day 20-48 by 20/60 mg/kg ([3]; 20 mg/kg twice daily): 6 g/L; Decrease in serum iron by 20/60 mg/kg compound ([3]; 20 mg/kg): 49%; Decrease in RDW by 20/60 mg/kg compound [3, 5]: 16%; Decrease in ^58Fe spleen iron content by 20/60 mg/kg compound [3, 5]: 48%; Decrease in blood reticulocyte counts by 20/60 mg/kg compound [3, 5]: 39%; Decrease in leukocyte counts by 20/60 mg/kg compound [3, 5]: 44%; Decrease in serum erythropoietin by 20/60 mg/kg compound [3, 5]: 78%; Increase in blood erythrocyte counts by 20/60 mg/kg compound [3, 5]: 8%; Increase in hematocrit by 20/60 mg/kg compound [3, 5]: 4%; Prevention of liver ^58Fe loading by 20/60 mg/kg [3, 5]: 40%; Correction of anemia at day 20-48 by 20/60 mg/kg ([3]; 60 mg/kg twice daily): 20 g/L; Decrease in serum iron by 20/60 mg/kg compound ([3]; 60 mg/kg): 66%; Decreased in ROS in bone marrow erythrocytes [3, 6]: 20%; Decreased in ROS in bone marrow erythrocytes [3, 7]: 45%
